Measured values from patent publication US6858640B2, “Tricyclic indole compounds having affinity for serotonin receptor” (Shionogi & Co., Ltd., priority 2000, dated 2005).
Read-outs that look alike come from different tables or passages of the source.

Tests used:
5HT7 = 5HT7 (Homo sapiens, UniProt P34969); test: radioligand binding to serotonin receptor, cell membrane sample, Ki by Cheng-Prusoff
Protocol: (§1) A mixture of radioactive ligands and some cardinal numbers of test compounds was incubated with a sample of cell membrane, which was prepared from brain of rats or HEK293 cells, which expressed the receptor, under the following conditions. Then, the sample was filtered by suction on a Whatman GF/C. Radioactivity on the filter was encountered by the use of a liquid scintillation counter. 50% Inhibitory concentration values (IC50 values) of each selective binding were calculated for test compounds and the Ki value was obtained by applying an equation of Cheng-Prusoff [Biochem. Pharmacol. 22 (1973) 3099-3108] Ki=IC50/(1+[L]/Kd).

5HT1A = molecular target: T1, 5HT1A (Rattus norvegicus, UniProt P19327); test: as above
T1 construct: prepared from brain of rats or HEK293 cells, which expressed the receptor; from tissue; host or cells: rat brain membranes
T1 sequence (P19327 1-422): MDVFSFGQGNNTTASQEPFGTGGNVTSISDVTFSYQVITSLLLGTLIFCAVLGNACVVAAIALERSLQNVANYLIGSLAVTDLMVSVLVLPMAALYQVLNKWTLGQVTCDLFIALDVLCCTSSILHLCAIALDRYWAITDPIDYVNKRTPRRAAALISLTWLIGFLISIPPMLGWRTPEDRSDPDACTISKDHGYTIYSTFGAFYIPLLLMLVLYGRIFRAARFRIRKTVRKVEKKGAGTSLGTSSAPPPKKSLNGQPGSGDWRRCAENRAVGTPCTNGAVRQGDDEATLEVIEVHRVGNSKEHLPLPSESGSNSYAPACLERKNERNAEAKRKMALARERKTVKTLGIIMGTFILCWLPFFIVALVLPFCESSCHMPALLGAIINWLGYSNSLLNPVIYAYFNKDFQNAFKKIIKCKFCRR
Protocol: as §1

5HT6 = molecular target: T2, 5HT6 (Homo sapiens, UniProt P50406); test: radioligand binding to serotonin receptor, cell membrane sample, Ki by Cheng-Prusoff
T2 construct: expressed in transfected cells; host or cells: HEK293
T2 sequence (P50406 whole entry, species assumed): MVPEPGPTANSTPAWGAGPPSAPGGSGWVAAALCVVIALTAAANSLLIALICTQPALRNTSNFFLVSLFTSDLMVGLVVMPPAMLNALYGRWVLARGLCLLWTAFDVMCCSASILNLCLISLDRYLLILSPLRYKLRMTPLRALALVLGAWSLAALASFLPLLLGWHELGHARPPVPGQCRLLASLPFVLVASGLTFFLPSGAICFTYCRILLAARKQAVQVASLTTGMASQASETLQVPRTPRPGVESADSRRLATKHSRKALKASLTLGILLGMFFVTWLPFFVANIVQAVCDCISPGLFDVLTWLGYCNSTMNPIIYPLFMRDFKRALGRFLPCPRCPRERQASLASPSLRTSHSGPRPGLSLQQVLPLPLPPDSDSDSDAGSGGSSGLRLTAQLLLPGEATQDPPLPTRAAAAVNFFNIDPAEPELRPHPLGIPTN
Protocol: as §1

[1] = Human 5-HT7 (HEK293), 0.5 nM [3H] 5CT, 25° C. 120 min, read-out: Ki value (nM) ±SE 5-HT7
[2] = rat hippocampus membranes, 1 nM [3H] 8-OH-DPAT, 25° C. 30 min, read-out: Ki value (nM) ±SE 5-HT1A

Chain of 5HT7 (P34969 whole entry, species assumed): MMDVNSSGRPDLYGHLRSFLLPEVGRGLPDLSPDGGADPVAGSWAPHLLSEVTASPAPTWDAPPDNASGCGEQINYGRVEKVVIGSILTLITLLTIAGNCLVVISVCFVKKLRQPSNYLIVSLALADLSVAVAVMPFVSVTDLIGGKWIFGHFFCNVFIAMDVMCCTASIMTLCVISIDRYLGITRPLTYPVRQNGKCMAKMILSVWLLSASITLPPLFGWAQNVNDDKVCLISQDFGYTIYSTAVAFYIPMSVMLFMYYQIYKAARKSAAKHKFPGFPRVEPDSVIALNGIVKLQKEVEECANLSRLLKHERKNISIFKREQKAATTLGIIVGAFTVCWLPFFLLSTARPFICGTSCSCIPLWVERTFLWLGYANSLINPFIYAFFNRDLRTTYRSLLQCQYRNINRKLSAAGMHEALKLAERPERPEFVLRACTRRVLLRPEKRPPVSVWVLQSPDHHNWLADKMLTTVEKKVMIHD

| Structure (SMILES) | Ki (5HT7; [1]) [nM] | Ki (5HT1A; [2]) [nM] | Ki (5HT7) [nM] | Ki (5HT1A) [nM] | melting point [°C] | Ki (5HT6) [nM] |
| --- | --- | --- | --- | --- | --- | --- |
| COC(=O)/C=C/c1ccc2[nH]cc3c2c1OCC(N(C)C)C3 (stereo not drawn) [Compound 39, (E)-3-(8-Dimethylamino-2,7,8,9-tetrahydro-6-oxa-2-azabenzo[cd]azulen-5-yl)acrylic acid methyl ester] | 73 | 27 | – | – | – | – |
| CCCNC1COc2cccc3[nH]cc(c23)C1 (stereo not drawn) [Compound 19-3] | – | – | 46 | 5.7 | 137 to 139 | – |
| CN(C)C1COc2c(Br)ccc3[nH]cc(c23)C1 (stereo not drawn) [Compound 19-16] | – | – | 86 | 58 | 142 to 143 | 62 |
| C=Cc1ccc2[nH]cc3c2c1OCC(N(C)C)C3 (stereo not drawn) [Compound 40, Dimethyl-(5-vinyl-2,7,8,9-tetrahydro-6-oxa-2-azabenzo[cd]azulen-8-yl)amine] | 74 | 15 | – | – | – | 32 |
| CCN(CC)C1COc2cccc3c2c(cn3S(=O)(=O)c2ccccc2)C1 (stereo not drawn) [Compound 36-3] | – | 58 | – | – | 106 to 108 | 4.2 |
| CN(C)C1COc2c(-c3ccccc3)ccc3[nH]cc(c23)C1 (stereo not drawn) [Compound 38, Dimethyl-(5-phenyl-2,7,8,9-tetrahydro-6-oxa-2-azabenzo[cd]azulen-8-yl)amine] | 22 | 83 | – | – | 168 to 170 | – |
| CNC1COc2c(Br)ccc3[nH]cc(c23)C1 (stereo not drawn) [Compound 19-15] | – | – | 16 | 7.7 | – | 4.6 |
